{
  "source": "patent US20130237582A1",
  "about": "“PHARMACEUTICAL COMBINATION OF PACLITAXEL AND A CDK INHIBITOR” (Piramal Enterprises Limited, priority 2010, published 2013)",
  "key": {"[1]": {"tested_on": "MDA-MB-231, MDA-MB-468 and MCF-7 cell lines", "assay": "Clonogenic assay or colony forming assay", "type": "cell-based, human", "settings": "IC10, IC30, IC50 for 48 h, then 14 days drug-free", "procedure": "MDA-MB-231, MDA-MB-468 and MCF-7 cell lines were seeded in RPMI 1460 with 10% FCS, at a density of 1500 cells/well in six well plates. […] The medium was removed at the end of the treatment and incubated in fresh medium (without drug) for 14 days. After 14 days the medium was aspirated and colonies were fixed with methanol and acetic acid mixture in the proportion of 2:1, rinsed with water and the fixation procedure was repeated. The plates were dried and colonies stained with 0.1% crystal violet for 5 min. The wells were finally rinsed with water and dried."}, "PARP": {"biological_target": "T1, PARP (Homo sapiens, UniProt P09874)", "T1 construct": "endogenous in cells; host or cells: MDA-MB-231; MDA-MB-468", "T1 sequence (P09874 2-1014 limits assumed)": "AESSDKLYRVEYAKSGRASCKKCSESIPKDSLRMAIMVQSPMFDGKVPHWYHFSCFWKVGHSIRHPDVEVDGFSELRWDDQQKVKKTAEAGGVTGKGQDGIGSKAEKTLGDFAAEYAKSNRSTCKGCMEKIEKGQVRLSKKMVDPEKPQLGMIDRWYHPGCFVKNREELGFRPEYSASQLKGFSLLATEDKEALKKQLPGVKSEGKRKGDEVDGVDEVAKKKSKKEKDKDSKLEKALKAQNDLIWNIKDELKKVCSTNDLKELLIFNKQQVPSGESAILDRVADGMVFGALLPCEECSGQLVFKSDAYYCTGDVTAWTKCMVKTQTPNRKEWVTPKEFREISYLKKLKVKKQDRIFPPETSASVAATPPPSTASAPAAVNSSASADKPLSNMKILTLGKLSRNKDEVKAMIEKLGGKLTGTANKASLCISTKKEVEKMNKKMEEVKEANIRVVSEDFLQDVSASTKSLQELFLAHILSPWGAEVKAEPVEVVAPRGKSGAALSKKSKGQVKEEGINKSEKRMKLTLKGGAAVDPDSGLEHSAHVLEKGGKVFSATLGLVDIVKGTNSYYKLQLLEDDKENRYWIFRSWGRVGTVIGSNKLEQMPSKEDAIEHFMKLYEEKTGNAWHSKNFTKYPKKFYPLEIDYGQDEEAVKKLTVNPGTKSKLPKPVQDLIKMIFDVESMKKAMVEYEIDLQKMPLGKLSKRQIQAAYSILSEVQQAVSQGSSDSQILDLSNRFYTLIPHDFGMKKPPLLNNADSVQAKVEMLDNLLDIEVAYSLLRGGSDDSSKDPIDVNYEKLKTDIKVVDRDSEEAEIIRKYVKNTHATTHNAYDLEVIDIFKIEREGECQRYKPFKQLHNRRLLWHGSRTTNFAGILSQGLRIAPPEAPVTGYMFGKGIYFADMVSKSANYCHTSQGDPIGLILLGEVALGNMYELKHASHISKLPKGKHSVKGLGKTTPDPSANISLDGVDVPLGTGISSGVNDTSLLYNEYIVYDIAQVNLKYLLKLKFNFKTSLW", "assay": "PARP enzyme activity measured by PAR polymers (Western blot), MDA-MB-468", "type": "cell-based", "settings": "1.5 μM and 5 μM, 24 h, hydrochloride", "procedure": "To study PARP enzyme activity, PAR polymer formation was measured. MDA-MB-231 and MDA-MB-468 cells were seeded in RPMI 1460 medium with 10% FCS in […] tissue culture flask and incubated for 24 h. These cells were treated at 1.5 μM and 5 μM of Compound A for 24 h. The cells were harvested (trypsinised) and lysed using lysis buffer. Western blotting (Molecular Cancer Therapeutics, 2007, 6, 918-925) was done with specific antibody to PAR.\nCorrelation of PARP activity and cell cycle proteins cyclin D1, total Rb and pRb 780 were studied in two TNBC cell lines viz. MDA-MB-468 and MDA-MB-231. MDA-MB-231 and MDA-MB-468 cells were seeded in RPMI 1460 medium with 10% FCS in […] tissue culture flask and incubated for 24 h. These cells were treated at 1.5 μM and 5 μM Compound A for 24 h. The cells were harvested (trypsinised) and lysed using lysis buffer. Western blotting was carried out (Molecular Cancer […], 2007, 6, 918-925) using specific antibody to PAR, PARP, cyclin D1, CDK4 and pRb Ser 780."}, "[2]": {"biological_target": "T2, CDK4-D1 (Cyclin D1 and CDK4) (Homo sapiens, UniProt P11802)", "T2 construct": "endogenous in cells; host or cells: MCF-7 (serum-starved, synchronized)", "T2 sequence (P11802 2-303 limits assumed)": "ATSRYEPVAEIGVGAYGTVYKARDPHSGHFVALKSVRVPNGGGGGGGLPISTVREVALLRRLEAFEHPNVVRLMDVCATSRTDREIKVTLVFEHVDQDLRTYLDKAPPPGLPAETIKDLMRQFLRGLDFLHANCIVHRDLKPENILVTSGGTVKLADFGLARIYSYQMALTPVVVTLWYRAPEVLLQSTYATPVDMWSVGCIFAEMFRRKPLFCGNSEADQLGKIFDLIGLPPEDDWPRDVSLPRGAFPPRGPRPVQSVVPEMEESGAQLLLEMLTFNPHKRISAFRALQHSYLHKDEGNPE", "T2 sequence (P24385 whole entry partner)": "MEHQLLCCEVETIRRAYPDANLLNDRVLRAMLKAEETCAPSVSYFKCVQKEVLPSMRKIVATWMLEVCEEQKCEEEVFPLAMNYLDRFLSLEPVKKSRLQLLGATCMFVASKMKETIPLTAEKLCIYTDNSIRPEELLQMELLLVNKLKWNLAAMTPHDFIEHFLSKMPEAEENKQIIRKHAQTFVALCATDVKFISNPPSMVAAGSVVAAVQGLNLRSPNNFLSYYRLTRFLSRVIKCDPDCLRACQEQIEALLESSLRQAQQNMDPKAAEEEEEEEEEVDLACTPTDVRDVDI", "assay": "CDK4 kinase activity after immunoprecipitation from MCF-7 cells", "type": "cell-based", "settings": "synchronized MCF-7; 1.5 μM; 3, 6, 9 and 12 h", "procedure": "For immunoprecipitation assay, the MCF-7 cells were synchronized by serum starvation. These cells were treated with Compound A at 1.5 μM at various time points viz. 3 h, 6 h, 9 h and 12 h. Cells were harvested (trypsinised) and lysed using lysis buffer, and protein content was estimated. CDK4-D1 (Cyclin D1 and CDK4) was purified from the lysate by immunoprecipitation using specific antibody to CDK4. Immune complex was further purified using Protein A sepharose beads (Sigma Aldrich, USA). Immune complex was used to determine CDK4 activity using pRb as a substrate and ^32P labelled ATP (BRIT, India). Reaction mixed was applied to SDS-PAGE followed by transfer and autoradiography."}, "VEGF": {"tested_on": "VEGF", "assay": "VEGF reporter gene based assay (M-9 cells)", "type": "cell-based", "settings": "Homo sapiens, hypoxia, 20-24 h, read-out: IC50 for VEGF inhibition under hypoxia", "procedure": "A cell line M-9 is MDA-MB-231 which is stably co-transfected with the VEGF-Luc construct (VEGF promoter in pGL2-basic) and a plasmid containing the Geneticin (G418) resistance gene which forms VEGF promoter reporter gene. The expression of the reporter gene in the clone cells, as measured by luciferase activity, is stable.\nThe effect of Compound A on VEGF inhibition was evaluated using the VEGF reporter gene based assay.\nLysis Assay Buffer (1×) • Tris-Phosphate (pH 7.8)-125 mM, DTT-10 mM, EDTA-10 mM, Glycerol-50% and Triton X-100-5%.\nLuciferase Assay Reagent (LAR) • Luciferase Assay Buffer-8 mL, 530 μM ATP-530 μL, 270 μM CoA-1 mL and 170 μM Luciferin-1 mL.\nLuciferase Assay Buffer (LAB) (1×) • Tricin (pH 7.8)-20 mM, Magnesia Alba-1.07 mM, MgSO4-2.67 mM, EDTA-0.1 mM and DTT-33.3 mM. ATP Stock made in LAB=5.85 mg/mL CoA Stock made in LAB=2.1 mg/mL Luciferin Stock made in LAB=1.5 mg/mL\n1. M-9 cells were sub-cultured and maintained in RPMI-1640 Medium with supplement of 10% FBS, and 4 μL/ml G418 (Stock 100 mg/mL) in a humidified incubator at 37° C. and 5% CO2. 2. Cells were seeded at density of 3×10^4 cells/well in 180 μL volume in tissue culture grade 96 well white plates as well as transparent plates and allowed to adhere for 16-20 h in humidified CO2 incubator (5% CO2) at 37° C. A total of two sets of plates were made, as the incubation conditions are different. 3. Compound A, Sutent® and BSI-201 were diluted in medium serially so that final desired concentrations are achieved in the respective wells. (not more than 0.5% concentration of DMSO in the wells). 4. INCUBATION CONDITIONS: One set of plates are incubated under ambient atmospheric condition with 5% CO2, referred hereafter as NORMOXIC/OXIC PLATE. […] To all the wells, 100 μL Luciferase Assay Reagent (LAR) are added, plates are immediately read for Luminescence on TOPCOUNT™ (Packard, USA). The percentage inhibitions and Inhibitory Concentration (IC50) or Effective Concentration (EC50) are calculated in comparison with Control (untreated) values. […]"}},
  "note": "“Also recorded” adds a separate entry of the source.",
  "data": [
    {"molecule": "CN1CC[C@@H](c2c(O)cc(O)c3c(=O)cc(-c4ccccc4Cl)oc23)[C@@H]1CO.Cl", "note": "[Compound A, (+)-trans-2-(2-Chloro-phenyl)-5,7-dihydroxy-8-(2-hydroxymethyl-1-methyl-pyrrolidin-3-yl)-chromen-4-one hydrochloride]", "values": [
      {"measurement": "colony forming potential", "setting": "[1]", "value": "inhibit the colony forming potential in a dose dependent manner"},
      {"measurement": "PARP enzyme activity (PAR polymer formation)", "setting": "PARP", "value": "the formation of PAR polymers is not inhibited; also recorded: no change in the PAR polymer formation"},
      {"measurement": "CDK4 kinase activity", "setting": "[2]", "value": "Decrease in CDK4 kinase activity in cell-based assay was seen as early as 3 h onwards"},
      {"measurement": "IC50", "setting": "VEGF", "value": 310, "unit": "nM"}
    ]}
  ]
}
